# Results published in US11633454B2, “Compositions and methods for treating metabolic diseases” (SHANGHAI HEP PHARMACEUTICAL CO., LTD., priority 2016, dated 2023).
# Columns and labels:
# [1] = test system: hyperlipidemic golden hamsters; experiment: Hyperlipidemic golden hamster model, 4 weeks of treatment; assay type: in vivo; settings: 50 mg/kg FENO po
# [2] = test system: Zucker Diabetic Fatty (ZDF) rats; experiment: Zucker Diabetic Fatty (ZDF) rats, 4 weeks of treatment (GLU, HbA1c, insulin, TC, TG, BUN, organ index, TBA); assay type: in vivo, rat
# NTCP = molecular target: T1, NTCP (Homo sapiens, UniProt Q14973); experiment: In vitro bile acids assay (3H-TA uptake by NTCP-293 cells)
# T1 sequence (Q14973 1-349): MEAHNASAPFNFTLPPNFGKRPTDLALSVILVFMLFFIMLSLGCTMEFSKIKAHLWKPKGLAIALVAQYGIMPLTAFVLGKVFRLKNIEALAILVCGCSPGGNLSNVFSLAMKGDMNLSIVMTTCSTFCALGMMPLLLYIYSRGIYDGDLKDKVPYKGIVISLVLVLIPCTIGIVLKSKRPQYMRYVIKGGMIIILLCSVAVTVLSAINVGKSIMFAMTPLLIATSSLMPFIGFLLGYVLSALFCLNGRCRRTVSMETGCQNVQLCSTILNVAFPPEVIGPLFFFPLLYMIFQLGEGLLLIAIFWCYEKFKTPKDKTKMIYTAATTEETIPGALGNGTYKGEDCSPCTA
# [3] = 300 mg/kg Met, 2 weeks of dosing
# [4] = 300 mg/kg Met, 4 weeks of dosing
# [5] = ZDF rats, after 4 weeks of treatment, 300 mg/kg Met oral gavage, mean ± SEM
compound,measurement,setting,value
"CC(C)OC(=O)C(C)(C)Oc1ccc(C(=O)c2ccc(Cl)cc2)cc1 [FENO, Fenofibrate]",Serum TC (χ ± S),[1]; 2 w of dosing,6.63 ± 4.40 mmol/L
same,Serum TG (χ ± S),[1]; 2 w of dosing,3.14 ± 0.4 mmol/L
same,Serum TC (χ ± S),[1]; 4 w of dosing,7.42 ± 1.70 mmol/L
same,Serum TG (χ ± S),[1]; 4 w of dosing,2.68 ± 0.30 mmol/L
same,Serum HDL-C,[1]; 4 weeks post the treatment,3.13 ± 0.30 mmol/L
same,Serum LDL-C,[1]; 4 weeks post the treatment,1.88 ± 0.40 mmol/L
same,AI (atherosclerosis index),"[1]; 4 weeks, AI=(TC−HDL-C)/HDL-C",1.36 ± 0.38
same,Serum TC (χ ± S),[1]; before dosing,11.34 ± 0.50 mmol/L
same,Serum TG (χ ± S),[1]; before dosing,6.16 ± 1.30 mmol/L
"CN(C)C(=N)N=C(N)N [Met, Metformin]",Fasting serum GLU (χ ± SEM),"[2]; 300 mg/kg Met oral gavage, 2 weeks of dosing",7.98 ± 1.02 mmol/L
same,Fasting serum GLU (χ ± SEM),"[2]; 300 mg/kg Met oral gavage, 4 weeks of dosing",8.35 ± 0.58 mmol/L
same,Fasting serum GLU (χ ± SEM),"[2]; 300 mg/kg Met oral gavage, week 0",9.71 ± 0.96 mmol/L
same,Serum BUN (χ ± SEM),[2]; [3],6.58 ± 0.52 mM
same,Serum TC (χ ± SEM),[2]; [3],5.24 ± 0.35 mM
same,HbA1c level (χ ± SEM),[2]; [4],5.07 ± 0.23 %
same,Serum BUN (χ ± SEM),[2]; [4],7.09 ± 0.36 mM
same,Serum TC (χ ± SEM),[2]; [4],6.95 ± 0.54 mM
same,HbA1c level (χ ± SEM),"[2]; 300 mg/kg Met, week 0",6.25 ± 0.31%
same,Serum BUN (χ ± SEM),"[2]; 300 mg/kg Met, week 0",5.52 ± 0.21 mM
same,Serum TC (χ ± SEM),"[2]; 300 mg/kg Met, week 0",3.82 ± 0.11 mM
same,Serum insulin (χ ± SEM),"[2]; 300 mg/kg Met, week 0",6.74 ± 0.62 ng/mL
same,Heart index (HI) vs model controls,"[2]; MET 300 mg/kg, 4 weeks, FIG. 27A",had no effect on the HI values
same,Total fat index (TFI) vs model controls,"[2]; MET 300 mg/kg, 4 weeks, FIG. 27C",appeared to increase the TFI values
same,Fasting serum GLU,"[2]; MET positive control in the experiment with additional polypeptides, FIGS. 18A, 18B",significantly decreased fasting serum GLU
same,Serum TBA level after weeks of dosing,"[2]; ZDF rats, 300 mg/kg Met, week 0, mean ± SEM",32.8 ± 12.3 µM
same,Serum TBA level after weeks of dosing,"[2]; ZDF rats, 300 mg/kg Met, week 2, mean ± SEM",82.5 ± 27 µM
same,Serum TBA level after weeks of dosing,"[2]; ZDF rats, 300 mg/kg Met, week 4, mean ± SEM",83 ± 15.8 µM
same,Heart index,[2]; [5],3.63 ± 0.24 g/kg
same,Kidney index,[2]; [5],7.26 ± 0.55 g/kg
same,Total fat index,[2]; [5],94.64 ± 3.79 g/kg
C=C[C@H]1C[N@@]2CC[C@H]1C[C@@H]2[C@@H](O)c1ccnc2ccc(OC)cc12 [quinidine],Effect on TA absorption,"NTCP; 0.1 μmol/L, FIG. 5E",enhanced TA absorption
same,Effect on TA absorption,"NTCP; 20 μmol/L, FIG. 5F",enhanced TA absorption
